Laboratory results published in ChEMBL document CHEMBL5338726, “Characterization of Chlorogenic Acid as a Two-Photon Fluorogenic Probe that Regulates Glycolysis in Tumor Cells under Hypoxia” (J Med Chem, 2023).
The source made the active and inactive calls.

Experiments:
[1] = test system: A-375; assay: Reduction in extracellular acidification rates in human A-375 cells at upto 10 uM incubated for 6 hrs under normoxia condition; assay type: functional, cell-based
[2] = test system: A-375; assay: Reduction in ATP production in human A-375 cells at upto 10 uM incubated for 6 hrs under hypoxia condition by real-time ATP rate assay; assay type: functional, cell-based
[3] = test system: A-375; assay: Radical scavenging activity in 2-ME treated oxidative stress induced human A-375 cells assessed as increase in fluorescent signal at 10 uM incubated for 30 mins followed by washout and addition of ascorbic acid by confocal microscopic analysis; assay type: functional, cell-based
[4] = test system: A-375; assay: Radical scavenging activity in 2-ME treated oxidative stress induced tumor bearing BALB/c-nu mouse xenografted in human A-375 cells assessed as increase in fluorescence intensity at 10 uM incubated for 30 mins followed by washout and addition of ascorbic acid by confocal microscopic analysis; assay type: functional, cell-based
[5] = test system: A-375; assay: Antitumor activity in human A-375 cells xenografted in BALB/c-nu mouse model assessed as decrease in AMPKalpha phosphorylation 50 mg/kg, ip by Western blot analysis; assay type: functional, organism-based
[6] = test system: A-375; assay: Increase in oxygen consumption rate in human A-375 cells at upto 10 uM measured after 6 hrs under normoxia condition; assay type: functional, cell-based
[7] = test system: A-375; assay: Reduction in AMPK phosphorylation level in human A-375 cells at upto 20 uM incubated for 72 hrs under hypoxic condition by Western blot analysis; assay type: functional, cell-based
[8] = test system: A-375; assay: Antiproliferative activity against human A-375 cells assessed as reduction in cell growth at 1.25 to 10 uM incubated for 72 hrs under normoxia condition by MTT assay; assay type: functional, cell-based; details: dose 1.25-10 µM
[9] = test system: A-375; assay: Reduction in […] O2 level in human A-375 cells at 2.5 to 10 uM incubated for 72 hrs under normoxia condition by DHE based flow cytometry analysis; assay type: functional, cell-based; details: dose 2.5-10 µM
[10] = test system: A-375; assay: Reduction in ATP production in human A-375 cells at upto 10 uM incubated for 6 hrs under normoxia condition by real-time ATP rate assay; assay type: functional, cell-based
[11] = test system: A-375; assay: Reduction in […] O2 level in human A-375 cells at 2.5 to 10 uM incubated for 72 hrs under hypoxia condition by DHE based flow cytometry analysis; assay type: functional, cell-based; details: dose 2.5-10 µM
[12] = test system: A-375; assay: Reduction in extracellular acidification rates in human A-375 cells at upto 10 uM incubated for 6 hrs under hypoxia condition; assay type: functional, cell-based
[13] = test system: A-375; assay: Radical scavenging activity in 2-ME treated oxidative stress induced tumor bearing BALB/c-nu mouse xenografted in human A-375 cells assessed as increase in fluorescence intensity at 10 uM incubated for 30 mins by confocal microscopic analysis; assay type: functional, cell-based
[14] = test system: A-375; assay: Antiproliferative activity against human A-375 cells assessed as reduction in colony number at 1.25 to 10 uM measured after 10 days under hypoxia condition by crystal violet staining based analysis; assay type: functional, cell-based; details: dose 1.25-10 µM, time 10.0 day
[15] = test system: A-375; assay: Antiproliferative activity against human A-375 cells assessed as reduction in colony number at 1.25 to 10 uM measured after 10 days under normoxia condition by crystal violet staining based analysis; assay type: functional, cell-based; details: dose 1.25-10 µM, time 10.0 day
[16] = test system: A-375; assay: Reduction in AMPK phosphorylation level in human A-375 cells at upto 20 uM incubated for 72 hrs under normoxic condition by Western blot analysis; assay type: functional, cell-based
[17] = test system: A-375; assay: Antitumor activity in human A-375 cells xenografted in BALB/c-nu mouse model assessed as inhibition of tumor growth at 25 to 50 mg/kg, ip administered once daily and measured every 3 days for 18 days; assay type: functional, organism-based; details: dose 25-50 mg/kg, time 18.0 day
[18] = test system: A-375; assay: Increase in oxygen consumption rate in human A-375 cells at upto 10 uM measured after 6 hrs under hypoxia condition; assay type: functional, cell-based
[19] = Drug localization in 2-ME treated human A-375 cells assessed as fluorescence in lysosomes at 10 uM incubated for 30 mins by lyso-tracker red dye based confocal microscopy analysis; assay type: ADME, cell-based; details: a-375, 0.5 h
[20] = test system: A-375; assay: Radical scavenging activity in 2-ME treated oxidative stress induced human A-375 cells assessed as increase in fluorescent signal at 10 uM incubated for 30 mins followed by washout and addition of superoxide dismutase by confocal microscopic analysis; assay type: functional, cell-based
[21] = test system: A-375; assay: Radical scavenging activity in 2-ME treated oxidative stress induced human A-375 cells assessed as increase in fluorescent signal at 10 uM incubated for 30 mins by confocal microscopic analysis; assay type: functional, cell-based
[22] = test system: A-375; assay: Antiproliferative activity against human A-375 cells assessed as reduction in cell growth at 1.25 to 10 uM incubated for 72 hrs under hypoxia condition by MTT assay; assay type: functional, cell-based; details: dose 1.25-10 µM
[23] = Toxicity in BALB/c-nu mouse xenografted with human A-375 cells assessed as effect on body weight at 25 to 50 mg/kg, ip administered once daily fo 18 days post treatment; assay type: organism-based; details: in vivo, 432 h, dose 25-50 mg/kg, time 18 day
[24] = Drug localization in 2-ME treated human A-375 cells assessed as fluorescence in mitochondrial apparatus at 10 uM incubated for 30 mins by mito-tracker green dye based confocal microscopy analysis; assay type: ADME, cell-based; details: a-375, 0.5 h

O=C(/C=C/c1ccc(O)c(O)c1)O[C@@H]1C[C@](O)(C(=O)O)C[C@@H](O)[C@H]1O [CHLOROGENIC ACID]
Non-Toxic: Activity [23]
Active: Drug uptake [24]
active: Activity [2] | Activity [5] | Activity [7] | Activity [11] | Activity [12] | Activity [13] | Activity [14] | Activity [17] | Activity [18] | Activity [21] | Activity [22]
Not Active: Drug uptake [19]
inactive: Activity [1] | Activity [3] | Activity [4] | Activity [6] | Activity [8] | Activity [9] | Activity [10] | Activity [15] | Activity [16] | Activity [20]
